Structures can show the parent of a compound that is named as a salt.
Columns and labels:
Type in all cases: cell-based
[1] = tested on: Human lens epithelial cells; assay: TBHP-induced cell death in lens epithelial cells; conditions: lens epithelial cells (FIG. 19); 0.9 μM 24 h, then 300 μM TBHP 24 h
Protocol: Immortalized human lens epithelial cells (CRL-11421) obtained from the American Type Culture Collection (ATCC, Manassas, VA, USA) were cultured in Eagle's minimum essential media (EMEM, ATCC) containing 10% fetal bovine serum (FBS), 100 IU/mL penicillin, 100 μg/mL streptomycin, 100 μg/mL gentamicin, and 2.5 μg/mL amphotericin B (Thermo Fisher Scientific). Human ARPE-19 cells were plated in 96-well plates for 24 hours in DMEM supplemented with FBS and antibiotics. ARPE-19 cells were preincubated with either ciclopirox olamine (Sigma), compound 414 (Chemical Diversity, San Diego, CA), compound 434 (Chemical Diversity) or no compound for 24 hours and then exposed to varying concentrations of tert-butyl hydroperoxide (TBHP; Sigma-Aldrich, St. Louis, MO) the next day for 24 hours. Cell viability was measured the following day by […] cell viability assay (Promega, Madison, WI) using a BioTek FLX800TM fluorescence reader (BioTek Winooski, VT). […] Protective effect of 0.9 μMciclopirox olamine on lens epithelial cells exposed to 300 μMTBHP.

Human ARPE-19 cells = assay: Expression of oxidative stress and apoptosis related genes after TBHP; conditions: 0.9 μM 24 h preincubation, 300 μM TBHP 24 h
Protocol: FIG. 2 depicts the gene expression pattern of oxidative stress related genes after tert-butyl hydroperoxide-induced cell death. Human ARPE-19 cells were preincubated ciclopirox olamine (0.9 μM) for 24 hours and then exposed to 300 μM tert-butyl hydroperoxide (TBHP) for 24 hours. […] FIG. 3 depicts apoptotic gene expression patterns after oxidative stress-induced cell death in human retinal pigment epithelial (RPE) cells. Human ARPE-19 cells were preincubated with ciclopirox olamine for 24 hours and then exposed to 300 μM tert-butyl hydroperoxide (TBHP) for 24 hours. […] The expression levels of genes related to oxidative stress were identified after exposure to TBHP for 24 hours (FIG. 2).

[2] = tested on: Human iPSC-derived RPE cells; assay: Mitochondrial respiration (Seahorse XF) after TBHP in iPSC-derived RPE

Cc1cc(C2CCCCC2)n(O)c(=O)c1 [ciclopirox olamine, 6-cyclohexyl-1-hydroxy-4-methyl-2(1H)-pyridone, ethanolamine salt, reference compound]
cell viability after exposure to TBHP [1]: significantly increases cell viability
expression of genes related to anti-oxidative stress (Human ARPE-19 cells): elevated
expression of genes related to oxidative stress (Human ARPE-19 cells): reduced
gene expression of Bax (Human ARPE-19 cells): reduced
gene expression of caspase 8 (Human ARPE-19 cells): reduced
mitochondrial function, treatment alone ([2]; iPSC-derived RPE treated with ciclopirox olamine alone): improved
protection from oxidative stress-induced cell death ([2]; iPSC-derived RPE, TBHP 24 h): protects

Reference: patent publication US12310970B2, “Compounds and methods for treating or preventing anterior segment ocular disorders and/or retinal degenerations” (YALE UNIVERSITY, priority 2018, dated 2025)
